According to patent US8158605B2, “Azacytidine analogues and uses thereof” (Mount Sinai School of Medicine, priority 2007, dated 2012):

How the values were obtained:
5637 = assay: WST-1 cytotoxicity assay; format: cell-based
Procedure: (§1) Human promyelocytic leukemia cell lines HL60, human histiocytic lymphoma U937, human chronic myelogenous leukemia K562, human acute T cell Jurkat, breast adenocarcinoma MCF-7, urinary bladder carcinoma 5637, prostate carcinoma DU-145 were purchased from American Type Culture Collection. All cell lines except Jurkat were maintained in RPMI 1640 medium (Gibco, Glasgow, UK) supplemented with 10% heat-inactivated fetal calf serum (FCS), 100 U/ml of penicillin, and […] streptomycin, in an atmosphere of 5% CO2 at 37° C. Jurkat cells were cultured in RPMI 1640 medium supplemented with 1.5 g/L sodium bicarbonate, 4.5 g/L glucose, 10 mM sodium pyruvate, and 10% FCS, 100 U/ml of penicillin, and […] streptomycin.
(§2) MCF-7, DU-145, and 5637 cells (1×10^4/ml) were plated and allowed to adhere and spread for 24 hours. […] Cultures were incubated with WST-1 reagent for 1 hour. The production of formazan was measured by a microplate reader (Bio-Tek Instruments, Elx 800) at 450 nm with a reference wavelength of 650 nm. Growth inhibition was determined as compared to untreated cells (%). IC50 values were calculated using CalcuSyn software (Biosoft).

DU145 = assay: WST-1 cytotoxicity assay; format: cell-based; settings: Homo sapiens, DU-145
Procedure: as §1, §2

HL60 = assay: WST-1 cytotoxicity assay; format: cell-based; settings: Homo sapiens, HL-60
Procedure: as §1, §2

Jurkat = assay: WST-1 cytotoxicity assay; format: cell-based; settings: Homo sapiens
Procedure: as §1, §2

K562 = assay: WST-1 cytotoxicity assay; format: cell-based; settings: Homo sapiens
Procedure: as §1, §2

MCF-7 = assay: WST-1 cytotoxicity assay; format: cell-based; settings: Homo sapiens, MCF7
Procedure: as §1, §2

U937 = assay: WST-1 cytotoxicity assay; format: cell-based; settings: Homo sapiens, U-937
Procedure: as §1, §2

[1] = system: U937, HL60 and K562 cells; assay: Differentiating induction (NBT reduction, benzidine staining); format: cell-based, human; settings: repeated exposure for 11 (HL60) or 14 (U937, K562) days
Procedure: Cell differentiation was studied in terms of morphology. […] After initial treatment on day 0, cells were exposed to the new portions of drugs on day 4, 7, and 10. The differentiation was evaluated by NBT reduction assay (U937 and HL60) or by benzidine staining (K562).

[2] = system: MT-3/ADR resistant breast carcinoma; assay: MTT cytotoxicity; format: cell-based; settings: MDR1, MT-3/ADR resistant breast carcinoma (overexpress MDR-1/p-glycoprotein), 24 hours
Procedure: (§3) The cytotoxicity of Aza-C and 5-Aza-C-5′-elaidic acid was determined in a breast cancer cell line MT-3 and the adriablastin resistant cell line MT-3/ADR. The MT-3/ADR overexpress the MDR-1/p-glycoprotein. […] The cells were incubated for 24 hours. […] Six wells were used per test concentration. The cells were incubated with test compound for 24 hours. […] Similar activity was obtained for Aza-C and 5-Aza-C-5′-elaidic acid in the MT-3 breast carcinoma cell line, but in the MT-3/ADR resistant cell line the activity of Aza-C was lost. […] This may be of importance in the treatment of resistant cancer.

[3] = system: breast carcinoma cell line MT-3; assay: MTT cytotoxicity; format: cell-based; settings: MT-3 breast carcinoma, 24 hours
Procedure: as §3

[4] = system: Hela cervix carcinoma cells; assay: MTT cytotoxicity with or without nucleoside transport inhibitor dipyridamole; format: cell-based; settings: for IC50: Homo sapiens, HeLa, 72 h, MTT
Procedure: Dipyridamole was used as an inhibitor of the equilibrative nucleoside transporters hENT1 and hENT2. […] The cells were pre-incubated for 24 hours. Dipyridamole (10 μM) was added to the cells 30 minutes prior to the addition of the test compounds. […] Six wells were used per test concentration. The cells were incubated with test compound for 72 hours.

NFκB = assay: LPS stimulated NFκB luciferase reporter activity in U937 cells; format: cell-based, human; settings: 10 nM, LPS 1 μg/ml, 1, 3 or 6 hours, compared to DMSO treated control
Procedure: NFκB-luciferase reporter genes were used to determine the influence of Aza-C and 5-Aza-C-5′-elaidic acid on NFκB-induced luciferase activity in a human monocytic cell line U937, stably transfected with a luciferase reporter containing three NFκB-binding sites. The induction of NFκB was performed using lipopolysaccharide (LPS) at 1 μg/ml for 30 minutes prior to the addition of Aza-C or 5-Aza-C-5′-elaidic acid in the concentrations 10 nM to the medium. The cells were cultured in RPMI-1640 medium including 10% fetal bovine serum. Before stimulation with LPS the cells were transferred to medium containing only 2% fetal bovine serum. Luciferase activity was measured by imaging in an IVIS imaging System 100 (Xenogen Corp., USA) after 1, 3 or 6 hours. The LPS stimulation increased with time over the 6 hours followed in the DMSO treated control cells. […] Generally, a positive stimulation of NFκB as observed for azacytidine is not positive, and it is positive that the LPS stimulation is not further increased by 5′Aza-C-5′-elaidic acid.

[5] = clinical plasma samples; cited from earlier work

Nc1ncn([C@@H]2O[C@H](CO)[C@@H](O)[C@H]2O)c(=O)n1 [5-AzaC, 5-azacytidine, reference compound]
IC50 (5637; 5637, 24 hour treatment): 24.6 µM
IC50 (5637; 5637, 48 hour treatment): 6.72 µM
IC50 (5637; 5637, 72 hour treatment): 5.21 µM
IC50 (DU145; DU145, 24 hour treatment): 20.9 µM
IC50 (DU145; DU145, 48 hour treatment): 7.11 µM
IC50 (DU145; DU145, 72 hour treatment): 7.2 µM
IC50 (HL60; HL60, 24 hour treatment): 7.28 µM
IC50 (HL60; HL60, 48 hour treatment): 4.92 µM
IC50 (HL60; HL60, 72 hour treatment): 4.71 µM
IC50 (Jurkat; 24 hour treatment): 9.5 µM
IC50 (Jurkat; 48 hour treatment): 5.32 µM
IC50 (Jurkat; 72 hour treatment): 4.77 µM
IC50 (K562; K562, 24 hour treatment): 8.27 µM
IC50 (K562; K562, 48 hour treatment): 15.5 µM
IC50 (K562; K562, 72 hour treatment): 5.83 µM
IC50 (MCF-7; MCF-7, 24 hour treatment): > 160 µM
IC50 (MCF-7; MCF-7, 48 hour treatment): 93.7 µM
IC50 (MCF-7; MCF-7, 72 hour treatment): 53 µM
IC50 (U937; U937, 24 hour treatment): 1.63 µM
IC50 (U937; U937, 48 hour treatment): 2.37 µM
IC50 (U937; U937, 72 hour treatment): 4.77 µM
differentiation induction [1]: did not induce significant differentiation
IC50 [2]: > 100 µM
IC50 [3]: 12.6 ± 2.35 µM
activity reduced by addition of dipyridamole ([4]; Hela, with vs without dipyridamole): 3 fold
IC50 ([4]; Hela with dipyridamole (10 μM)): 12.8 µM
IC50 ([4]; without dipyridamole): 4.32 µM
LPS stimulated NFκB luciferase activity (NFκB): further increased the LPS induced NFκB activation
average terminal half-life [5]: 1.50 ± 2.30 h
